Entries after “also recorded” stand apart in the source; their conditions may differ.
System: retinal explant neurite outgrowth
Assay: Retina (alone) explant culture with and without recombinant MHC I (rsMHC I)
Type: cell-based, mouse
Conditions: for neurite outgrowth with rsMHC I plus compound compared with control levels / neurite outgrowth in cultures containing rsMHC I, compound added vs rsMHC I alone: ACPD 50 uM, cAMP 20 uM, Forskolin 5 uM; for overall protection against the effects of rsMHC I (summary): FIG. 5; for neurite outgrowth in cultures containing rsMHC I, compound added vs rsMHC I alone: 3 days
Method: To rule out the possibility that the MHC I-tg thalami inhibit retinal growth indirectly due to an alteration in the milieu of neuroactive molecules they secrete, wt retinas were cultured alone, in the presence, or absence of recombinantly produced MHC I D^b (rMHC I). The rMHC I was obtained by transfecting COS cells with a recombinant plasmid that directs the expression of a MHC I D^b lacking a membrane anchor and harvesting the conditioned media.
A truncated MHC I ^Db mini-gene (containing exons 1-4 plus a stop codon) was subcloned into pIRES (Invitrogen). Due to the lack of a transmembrane spanning region (exons 5 and 6), this MHC I molecule is secreted. COS cells were transfected (using lipofectamine, GIBCO) with the parental plasmid, or the plasmid encoding soluble MHC I D^b. […] Forty eight hours later, the conditioned media was harvested and added to fresh explant co-cultures of wt retina and thalamus at final dilutions of 1:1, 1:4, 1:20 or 1:100. To some cultures, monoclonal antibodies to MHCI D^b or D^k were added to both the matrigel (before its solidification) and the media (0.005 mg/ml). Both the conditioned media and the antibodies were coded. The co-cultures were incubated for 4-5 days, fixed, and scored in a blinded fashion as described above. Duplicates of each group were tested simultaneously in 4 separate experiments.
E14 day embryos from C57Bl6 and Balb/c mice were dissected in Leibovitz's L-15 media (Gibco BRL). The retinas were isolated and placed in a matrigel matrix (Growth Factor Reduced Basement membrane matrix, Collaborative Biomedical Products) in a chamber slide (Fisher LabTech). The slides were then incubated at 37° C. for 60 minutes to solidify the gel. Neurobasal medium (Gibco BRL), containing L-glutamine, antibiotics and 1× B27 supplement) was added to each chamber (0.25 ml). Inhibition of axon outgrowth by rsMHC I was tested by addition of conditioned culture media from COS cells containing rsMHC I or control media to the normal culture media. Compounds that modulate cAMP levels were added at the following concentrations to the matrigel and the culture media: Forskolin (5 uM), a drug that activates adenyl cyclase and endogenous production of cAMP; and Rp-cAMPS (20 uM), the R diasteriomer of adenosine 3′,5′-(cyclic) phosphorothioate, a non-hydrolyzable antagonist of cAMP. The cultures were incubated further at 37° C., 5% CO2. After incubating for 3 days, the experiment was terminated by replacing the buffer with 4% PFA and storing the slides at 4° C. Statistical Analysis was done by Student's test.

Row | Compound | neurite outgrowth with rsMHC I plus compound compared with control levels | overall protection against the effects of rsMHC I (summary) | neurite outgrowth in cultures containing rsMHC I, compound added vs rsMHC I alone (Rp-cAMPS 20 uM) | retinal explant outgrowth in control cultures (media alone, no rsMHC I) (Rp-cAMPS 20 uM) | neurite outgrowth in cultures containing rsMHC I, compound added vs rsMHC I alone (Rp-cAMPS 20 uM, listed as Rp-cAMPs)
1 | Nc1ncnc2c1ncn2[C@@H]1O[C@@H]2COP(=O)(O)O[C@H]2[C@H]1O [cAMP, cyclic adenosine monophosphate] | not statistically different from control levels | partially protective | significantly enhanced neurite outgrowth; also recorded: partially neutralize the inhibitory action of rMHC I | – | –
2 | Nc1ncnc2c1ncn2[C@@H]1O[C@@H]2CO[P@@](O)(=S)O[C@H]2[C@H]1O [Rp-cAMPS, R diasteriomer of adenosine 3′,5′-(cyclic) phosphorothioate] | – | very efficient at blocking the effects of rsMHC I | completely prevented the inhibitory effects of rsMHC I; also recorded: can reverse this inhibitory effect | no effect | completely prevented the inhibitory effects of rMHC I; also recorded: prevented the inhibitory action of rMHC I
3 | N[C@@]1(C(=O)O)CC[C@@H](C(=O)O)C1 [ACPD, 1-amino-(1S,3R)-cyclo pentanedicarboxylic acid] | did not return to control levels | partially protective | significantly enhanced neurite outgrowth; also recorded: partially neutralize the effects of rsMHC I | – | –

From patent US7553484B2, “Modulating neuronal outgrowth via the major histocompatibility complex class I (MHC I) molecule” (The Regents of the University of California, priority 2001, dated 2009)
